By IC50 is commonly meant the midpoint of a concentration-inhibition curve. A word on the inhibition: it is how much of the control response was suppressed.

The target in one data set is T1, UGT2B7 (Homo sapiens, UniProt P16662).
T1 construct: expressed in transfected cells; microsomal fraction
T1 sequence (P16662 24-529): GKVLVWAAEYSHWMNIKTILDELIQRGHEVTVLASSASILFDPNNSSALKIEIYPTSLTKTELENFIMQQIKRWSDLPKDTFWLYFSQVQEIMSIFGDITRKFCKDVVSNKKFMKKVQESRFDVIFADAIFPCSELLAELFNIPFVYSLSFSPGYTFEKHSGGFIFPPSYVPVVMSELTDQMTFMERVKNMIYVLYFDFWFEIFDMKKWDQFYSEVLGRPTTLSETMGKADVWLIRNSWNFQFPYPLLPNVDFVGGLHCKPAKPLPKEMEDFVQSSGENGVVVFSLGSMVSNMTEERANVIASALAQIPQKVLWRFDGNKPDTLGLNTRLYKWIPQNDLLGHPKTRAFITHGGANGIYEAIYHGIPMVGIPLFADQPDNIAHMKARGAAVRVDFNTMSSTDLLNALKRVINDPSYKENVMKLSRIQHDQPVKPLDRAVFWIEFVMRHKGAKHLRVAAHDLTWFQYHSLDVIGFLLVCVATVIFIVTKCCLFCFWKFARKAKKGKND
Nature of the data set: Inhibition of R- and S-oxazepam glucuronidation in rUGT2B7 microsomes (UGT-overexpressing HEK293). It counts as biochemical. As to conditions: for IC50: rUGT2B7; for inhibition at 2 h, 100 µM: human, pH 7.4, rUGT2B7 microsomes. Here is the method:
(§1) Human embryonic kidney cells (HEK293) stably overexpressing the single UGTs 1A9, 2B7, and 2B15 have been previously established and described. Cells were grown in DMEM supplemented with 350 μg/mL of geneticin and 10% FBS and harvested in PBS. Microsomal fractions of UGT-overexpressing cell lines were prepared by differential centrifugation using previously described protocols. Briefly, cell homogenates were prepared by resuspending pelleted cells in PBS, followed by five rounds of freeze–thaw cycles prior to homogenization. Recombinant microsomes (rUGTs) were prepared by centrifuging the cell homogenate at a low speed (9000× g for 30 min) followed by ultracentrifugation (34,000× g for 60 min), with the total protein subsequently determined using a BCA assay. Recombinant microsomes (UGT1A9 and 2B7) and homogenates (UGT2B15) were used for inhibition studies.
(§2) A Waters Corp BEH C18 Acquity UPLC column (1.7 µM, 2.1 × 100 mm) was used at a constant temperature of 40 °C for chromatographic separation. An elution gradient was used for 6.5 min with mobile phases A (5 mM ammonium formate) and B (100% methanol) under the following conditions: 90% A for 0.5 min, followed by a linear gradient for 3 min to 60% A, 1 min at 5% A, and re-equilibration for 1 min at 90% A.
(§3) The reaction was initiated by the addition of 4 mM UDPGA as the cofactor and incubated for 2 h at 37 °C. The reaction was terminated by adding 30 µL of an ice-cold stop solution (acetonitrile/methanol; 1:1). The reaction mixtures were centrifuged at 17,000× g for 30 min at 4 °C, and the supernatant was transferred to UPLC sample glass vial for analysis using UPLC–MS/MS (described above). […] As a positive control for inhibition assays, ketoconazole (10 μM and 100 µM) was used as a potential inhibitor of the UGTs 1A9, 2B7, and 2B15. Reactions containing only the cannabinoid vehicle (3% methanol) and without any inhibitor (cannabinoids) were used as a baseline reaction for 100% enzyme activity, while a reaction without UDPGA was used as a negative control. All experiments were performed in three independent experiments.
(§4) Determination of IC50 and Ki Values. […] The nonspecific binding constants (fu,inc) for cannabinoids in HEK293 microsomes, HLM, and HKM were previously determined and used to calculate the inhibition by unbound (‘free’) cannabinoid in each reaction. A nonlinear regression analysis and the following equation were used to calculate the IC50 values:(1) y = Bottom +Top − Bottom / 1 + 10^x − LogIC50A where ‘Bottom’ is the maximum observed inhibition (lowest percent activity) and ‘Top’ is the minimum observed inhibition (highest percent activity) for a given cannabinoid.

For data set [1] the following is noted: cited from earlier work.
The next data set concerns the target T2, UGT2B15 (Homo sapiens, UniProt P54855).
T2 construct: expressed in transfected cells; cell homogenate
T2 sequence (P54855 24-530): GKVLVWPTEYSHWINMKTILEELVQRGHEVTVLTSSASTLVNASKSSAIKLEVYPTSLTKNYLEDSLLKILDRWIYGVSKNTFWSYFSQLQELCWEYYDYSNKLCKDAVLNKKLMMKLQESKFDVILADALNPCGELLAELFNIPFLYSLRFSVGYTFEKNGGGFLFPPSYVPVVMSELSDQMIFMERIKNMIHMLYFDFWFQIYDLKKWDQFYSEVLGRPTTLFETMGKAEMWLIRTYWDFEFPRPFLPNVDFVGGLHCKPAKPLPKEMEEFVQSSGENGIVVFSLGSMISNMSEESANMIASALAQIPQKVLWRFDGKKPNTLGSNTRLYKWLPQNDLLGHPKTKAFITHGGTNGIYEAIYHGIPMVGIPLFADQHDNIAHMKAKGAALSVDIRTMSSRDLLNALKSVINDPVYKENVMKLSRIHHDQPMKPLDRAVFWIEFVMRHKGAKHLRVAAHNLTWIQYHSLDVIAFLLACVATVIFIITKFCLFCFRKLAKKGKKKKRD
The data set can be described thus: Inhibition of S-oxazepam glucuronidation in rUGT2B15 homogenate/microsomes (UGT-overexpressing HEK293). The class given is biochemical. As to conditions: for IC50: rUGT2B15. Here is the method:
as §1, §2, §3, §4

The target in the next data set is T3, UGT1A9 (Homo sapiens, UniProt O60656).
T3 construct: expressed in transfected cells; microsomal fraction
T3 sequence (O60656 26-530): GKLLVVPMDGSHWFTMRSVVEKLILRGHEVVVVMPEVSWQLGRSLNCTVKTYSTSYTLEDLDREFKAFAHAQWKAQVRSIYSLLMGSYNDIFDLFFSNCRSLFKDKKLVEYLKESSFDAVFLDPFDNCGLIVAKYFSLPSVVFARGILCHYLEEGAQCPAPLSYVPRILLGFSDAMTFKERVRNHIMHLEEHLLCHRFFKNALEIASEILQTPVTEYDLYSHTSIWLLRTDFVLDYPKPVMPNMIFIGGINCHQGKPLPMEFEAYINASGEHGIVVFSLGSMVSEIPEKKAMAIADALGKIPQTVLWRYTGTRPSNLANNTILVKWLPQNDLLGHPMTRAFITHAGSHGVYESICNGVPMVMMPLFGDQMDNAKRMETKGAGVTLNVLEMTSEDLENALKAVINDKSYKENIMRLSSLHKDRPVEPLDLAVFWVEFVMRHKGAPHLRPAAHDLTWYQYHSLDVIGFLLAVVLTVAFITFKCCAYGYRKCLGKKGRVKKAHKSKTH
Nature of the data set: Inhibition of R-oxazepam glucuronidation in rUGT1A9 microsomes (UGT-overexpressing HEK293). It counts as biochemical. As to conditions: for IC50: rUGT1A9. Here is the method:
as §1, §2, §3, §4

Setting [2] is: rUGT2B7 microsomes, 100 µM cannabinoid.
The mark [3] stands for this setting: overexpressing HEK293 cell lines.
The mark [4] stands for this setting: IC50 corrected with fu,inc, read-out: IC50,u, S-Oxazepam Glucuronide.
Where [5] appears, read: read-out: IC50, S-Oxazepam Glucuronide.
Where [6] appears, read: IC50 corrected with fu,inc, read-out: IC50,u, R-Oxazepam Glucuronide.
Setting [7] is: rUGT1A9 microsomes, 100 µM cannabinoid, vs control without cannabinoid.
Setting [8] is: read-out: IC50, R-Oxazepam Glucuronide.

Like-named read-outs stand apart in the source and are kept apart here.

For `CCCCCc1cc(O)c2c(c1)OC(C)(C)[C@@H]1CCC(C)=C[C@@H]21` [THC, Δ^9-tetrahydrocannabinol], the “Inhibition of R-oxazepam glucuronidation” value at UGT2B7 (setting [2]) stood at 50%. For the same molecule, the “unbound fraction (fu,inc)” value in data set [1] (incubation mixtures with HKM) is reported as 0.052 ± 0.005; in data set [1] (incubation mixtures with HLM), 0.048 ± 0.002; in data set [1] (setting [3]), 0.042 ± 0.003. In addition, the IC50 turned out to be 840 ± 420 nM on UGT2B15 (setting [4]), 20000 ± 10000 nM at UGT2B15 (setting [5]) and 500 ± 310 nM on UGT1A9 (setting [6]). In addition, the “Inhibition of R-oxazepam glucuronide formation” value on UGT1A9 (setting [7]) is given as 83%.

Regarding “11-hydroxy-Δ^9-tetrahydrocannabinol [11-OH-THC]”, the IC50 on UGT2B7 (setting [6]) was 770 ± 640 nM; at UGT2B7 (setting [4]), 530 ± 260 nM; at UGT2B7 (setting [8]) it was 9900 ± 8200 nM; at UGT2B7 (setting [5]) it was 6800 ± 3300 nM; at UGT2B15 (setting [4]), 4500 ± 2100 nM; at UGT2B15 (setting [5]), 58000 ± 27000 nM. The IC50 was determined as 1000 ± 600 nM at UGT1A9 (setting [6]) and 13000 ± 7700 nM at UGT1A9 (setting [8]). Moreover, the “Inhibition of R-oxazepam glucuronidation” value at UGT2B7 (setting [2]) is on record as 80%. Further, at UGT2B7 (setting [2]), the “Inhibition of S-oxazepam glucuronidation” value amounted to 81%. The “unbound fraction (fu,inc)” value in data set [1] (incubation mixtures with HKM) was 0.094 ± 0.014; in data set [1] (incubation mixtures with HLM), 0.094 ± 0.014; in data set [1] (setting [3]), 0.078 ± 0.042. Further, the “Inhibition of R-oxazepam glucuronide formation” value at UGT1A9 (setting [7]) was determined as 87%.

As to `C=C(C)[C@@H]1CCC(C)=C[C@H]1c1c(O)cc(CCCCC)cc1O` [CBD, cannabidiol], the inhibition at 2 h, 100 µM was 95% at UGT2B7 (100 µM cannabinoid, read-out: Inhibition of R-oxazepam glucuronidation); 89% at UGT2B7 (100 µM cannabinoid, read-out: Inhibition of S-oxazepam glucuronidation); 83 to 91% on UGT2B15 (human, pH 7.4, rUGT2B15 microsomes, 100 µM cannabinoid, range over the four cannabinoids, read-out: Inhibition of S-oxazepam glucuronide formation); 99% at UGT1A9 (human, pH 7.4, rUGT1A9 microsomes, 100 µM cannabinoid, vs control without cannabinoid, read-out: Inhibition of R-oxazepam glucuronide formation). In addition, the “unbound fraction (fu,inc)” value was 0.062 ± 0.009 in data set [1] (incubation mixtures with HKM), 0.051 ± 0.008 in data set [1] (incubation mixtures with HLM) and 0.038 ± 0.002 in data set [1] (setting [3]). Moreover, the inhibition at 2 h, 10 µM is 40 to 66% at UGT2B15 (human, pH 7.4, rUGT2B15 microsomes, 10 µM cannabinoid, range over the four cannabinoids, read-out: Inhibition of S-oxazepam glucuronide formation) and 98% at UGT1A9 (human, pH 7.4, rUGT1A9 microsomes, 10 µM cannabinoid, vs control without cannabinoid, read-out: Inhibition of R-oxazepam glucuronide formation). The IC50 at UGT2B15 (setting [4]) turned out to be 2000 ± 350 nM; at UGT2B15 (setting [5]) it was 54000 ± 9000 nM; at UGT1A9 (setting [6]) it was 53 ± 11 nM; at UGT1A9 (setting [8]), 1400 ± 290 nM.

Values taken from article PMC10892093 (Pharmaceutics, 2024).
